Values after ≈ are worked out from the molar mass of the structure shown. Like-named read-outs stand apart in the source and are kept apart here.
Tests used:
[1] = tested on: Streptococcus sp. group D 2041; assay: MIC, standard agar-dilution assay; format: cell-based
[2] = tested on: Staphylococcus epidermidis EPI1; assay: MIC, standard agar-dilution assay; format: cell-based
Text: (§1) In addition to excellent in vitro activity against erythromycin-sensitive bacteria, several members of this new series have shown in vitro activity against erythromycin-resistant strains. These include strains which are inducibly-resistant to erythromycin (S.. aureus V41 and X400 and S. epidermidis EPI1) and even strains which are constitutively-resistant (S. epidermidis 270).

[3] = tested on: Staphylococcus aureus X400; assay: MIC, standard agar-dilution assay; format: cell-based; conditions: Staphylococcus aureus X400, Methicillin-resistant strain, inducibly-resistant to erythromycin
Text: as §1

[4] = tested on: Staphylococcus aureus V41; assay: MIC, standard agar-dilution assay; format: cell-based; conditions: Staphylococcus aureus V41, Penicillin-resistant strain, inducibly-resistant to erythromycin
Text: as §1

[5] = tested on: Haemophilus influenzae C.L.; assay: MIC, standard agar-dilution assay; format: cell-based; conditions: Ampicillin-sensitive strain
[6] = tested on: Streptococcus pyogenes C203; assay: MIC, standard agar-dilution assay; format: cell-based
[7] = tested on: Staphylococcus epidermidis 222; assay: MIC, standard agar-dilution assay; format: cell-based
[8] = tested on: Streptococcus sp. group D X66; assay: MIC, standard agar-dilution assay; format: cell-based
[9] = tested on: Escherichia coli EC14; assay: MIC, standard agar-dilution assay; format: cell-based
[10] = tested on: Streptococcus pneumoniae Park I; assay: MIC, standard agar-dilution assay; format: cell-based
[11] = tested on: Klebsiella pneumoniae X68; assay: MIC, standard agar-dilution assay; format: cell-based
[12] = tested on: Staphylococcus aureus; assay: Experimental bacterial infection in mice, ED50; format: in vivo; conditions: Staphylococcus aureus, two doses, dose protecting 50% of animals
Experimental: (§2) The new derivatives of this invention have also shown in vivo antimicrobial activity against experimental bacterial infections. When two doses of test compound were administered to mice in experimental infections, the activity observed was measured as an EDso value [effective dose in mg/kg to protect 50% of the test animals: see Warren Wick, et al., J. Bacteriol. 81, 233-235 (1961)].

[13] = tested on: Streptococcus pyogenes; assay: Experimental bacterial infection in mice, ED50; format: in vivo; conditions: Streptococcus pyogenes, po, two doses, dose protecting 50% of animals, read-out: Oral ED50
Experimental: as §2

[14] = tested on: Streptococcus pneumoniae; assay: Experimental bacterial infection in mice, ED50; format: in vivo; conditions: Streptococcus pneumoniae, po, two doses, dose protecting 50% of animals, read-out: Oral ED50
Experimental: as §2

[15] = tested on: Haemophilus influenzae 76; assay: MIC, standard agar-dilution assay; format: cell-based; conditions: Haemophilus influenzae 76, Ampicillin-resistant strain
[16] = tested on: Staphylococcus aureus X1.1; assay: MIC, standard agar-dilution assay; format: cell-based
[17] = tested on: Staphylococcus aureus S13E; assay: MIC, standard agar-dilution assay; format: cell-based
[18] = Streptococcus sp. group D X66, read-out: MIC

| Compound | MIC ([1]; read-out: MIC) [µg/mL] | MIC [2] [µg/mL] | MIC ([3]; read-out: MIC) [µg/mL] | MIC ([4]; read-out: MIC) [µg/mL] | MIC ([5]; read-out: MIC) [µg/mL] | MIC ([6]; read-out: MIC) [µg/mL] | MIC ([7]; read-out: MIC) [µg/mL] | MIC [8, 18] [µg/mL] | MIC ([9]; read-out: MIC) [µg/mL] | MIC ([10]; read-out: MIC) [µg/mL] | MIC ([11]; read-out: MIC) [µg/mL] | ED50 ([12]; po, read-out: Oral ED50) [mg/kg] | ED50 [13] [mg/kg] | ED50 [14] [mg/kg] | MIC ([15]; read-out: MIC) [µg/mL] | MIC ([16]; read-out: MIC) [µg/mL] | MIC [17] [µg/mL] | also measured |
| --- | --- | --- | --- | --- | --- | --- | --- | --- | --- | --- | --- | --- | --- | --- | --- | --- | --- | --- |
| CC[C@H]1OC(=O)[C@H](C)[C@@H](O[C@H]2C[C@@](C)(OC)[C@@H](O)[C@H](C)O2)[C@H](C)[C@@H](O[C@@H]2O[C@H](C)C[C@H](N(C)C)[C@H]2O)[C@](C)(O)C[C@@H](C)[C@H](N(C)C2CCCCC2)[C@H](C)[C@@H](O)[C@]1(C)O [Compound 71, 9-Deoxo-9-[(N-cyclohexyl-N-methyl)amino]erythromycin] | 128 (≈ 154 µM) | > 128 | > 128 | > 128 | 32 (≈ 38.5 µM) | 1 (≈ 1.2 µM) | 8 (≈ 9.63 µM) | 8 (≈ 9.63 µM) | > 128 | 0.125 (≈ 0.15 µM) | > 128 | > 50 | > 50 | > 50 | 32 (≈ 38.5 µM) | 16 (≈ 19.3 µM) | 16 (≈ 19.3 µM) | – |
| CC[C@H]1OC(=O)[C@H](C)[C@@H](O[C@H]2C[C@@](C)(OC)[C@@H](O)[C@H](C)O2)[C@H](C)[C@@H](O[C@@H]2O[C@H](C)C[C@H](N(C)C)[C@H]2O)[C@](C)(O)C[C@@H](C)[C@H]2[C@H](C)[C@@H](OCN2Cc2ccccc2)[C@]1(C)O [Compound 62, 9-Deoxo-9-[(benzyl)amino]-9,11-(N.O)-cyclic Methylene Adduct of Erythromycin] | 4 (≈ 4.78 µM) | 64 (≈ 76.5 µM) | 128 (≈ 153 µM) | 64 (≈ 76.5 µM) | 4 (≈ 4.78 µM) | 0.125 (≈ 0.149 µM) | 0.5 (≈ 0.597 µM) | 0.5 (≈ 0.597 µM) | > 128 | 0.06 (≈ 0.0717 µM) | > 128 | > 50 | 15.6 | 15.2 | 4 (≈ 4.78 µM) | 1 (≈ 1.19 µM) | 1 (≈ 1.19 µM) | – |
| CC[C@H]1OC(=O)[C@H](C)[C@@H](O[C@H]2C[C@@](C)(OC)[C@@H](O)[C@H](C)O2)[C@H](C)[C@@H](O[C@@H]2O[C@H](C)C[C@H](N(C)C)[C@H]2O)[C@](C)(O)C[C@@H](C)[C@H](N(C)C(C)C)[C@H](C)[C@@H](O)[C@]1(C)O [Compound 70, 9-Deoxo-9-[(N-methyl-N-isopropyl)amino]erythromycin] | 32 (≈ 40.5 µM) | > 128 | > 128 | > 128 | 32 (≈ 40.5 µM) | 0.5 (≈ 0.632 µM) | 8 (≈ 10.1 µM) | 2 (≈ 2.53 µM) | > 128 | 0.5 (≈ 0.632 µM) | > 128 | – | – | – | 32 (≈ 40.5 µM) | 8 (≈ 10.1 µM) | 8 (≈ 10.1 µM) | – |
| 9-Deoxo-9-[(5-dimethylamino-2-pentyl)amino]-9,11-1N,O)-cyclic. Methylene Adduct of Erythromycin [Compound 63] | – | – | – | – | – | – | – | – | – | – | – | – | – | – | – | – | 8 | MIC [1]: 32 µg/mL; MIC [3]: – (– = >128); MIC [4]: – (– = >128); MIC [5]: 8 µg/mL; MIC [6]: 0.5 µg/mL; MIC [7]: 8 µg/mL; MIC ([8]; Streptococcus sp. group D X66): 2 µg/mL; MIC [9]: 32 µg/mL; MIC [10]: 0.5 µg/mL; MIC [11]: 128 µg/mL; MIC [15]: 8 µg/mL; MIC [16]: 8 µg/mL |
| CC[C@H]1OC(=O)[C@H](C)[C@@H](O[C@H]2C[C@@](C)(OC)[C@@H](O)[C@H](C)O2)[C@H](C)[C@@H](O[C@@H]2O[C@H](C)C[C@H](N(C)C)[C@H]2O)[C@](C)(O)C[C@@H](C)[C@H](NC)[C@H](C)[C@@H](O)[C@]1(C)O [Compound 1, 9-Deoxo-9-(methylamino)erythromycin] | 1 (≈ 1.34 µM) | – | 64 (≈ 85.4 µM) | 64 (≈ 85.4 µM) | 0.5 (≈ 0.668 µM) | 0.06 (≈ 0.0801 µM) | 0.25 (≈ 0.334 µM) | – | 32 (≈ 42.7 µM) | – | 64 (≈ 85.4 µM) | 43.8 | 21 | 35.4 | 1 (≈ 1.34 µM) | 1 (≈ 1.34 µM) | 0.125 (≈ 0.167 µM) | MIC ([8]; Streptococcus): 0.125 µg/mL (≈ 0.167 µM) |
| CC[C@H]1OC(=O)[C@H](C)[C@@H](O[C@H]2C[C@@](C)(OC)[C@@H](O)[C@H](C)O2)[C@H](C)[C@@H](O[C@@H]2O[C@H](C)C[C@H](N(C)C)[C@H]2O)[C@](C)(O)C[C@@H](C)[C@H]2[C@H](C)[C@@H](OCN2C2CCCC2)[C@]1(C)O [Compound 60] | 8 (≈ 9.81 µM) | > 128 | > 128 | > 128 | 4 (≈ 4.91 µM) | 0.125 (≈ 0.153 µM) | 1 (≈ 1.23 µM) | 0.5 (≈ 0.613 µM) | 64 (≈ 78.5 µM) | 0.06 (≈ 0.0736 µM) | 64 (≈ 78.5 µM) | > 50 | 10.2 | 9 | 4 (≈ 4.91 µM) | 1 (≈ 1.23 µM) | 2 (≈ 2.45 µM) | ED50 ([12]; sc, subcutaneous, read-out: Subcutaneous ED50): 5 mg/kg |
| CC[C@H]1OC(=O)[C@H](C)[C@@H](O[C@H]2C[C@@](C)(OC)[C@@H](O)[C@H](C)O2)[C@H](C)[C@@H](O[C@@H]2O[C@H](C)C[C@H](N(C)C)[C@H]2O)[C@](C)(O)C[C@@H](C)[C@H](N(C)C)[C@H](C)[C@@H](O)[C@]1(C)O [Compound 69, 9-Deoxo-9-(dimethylamino)erythromycin] | 4 (≈ 5.24 µM) | > 128 | 64 (≈ 83.9 µM) | 64 (≈ 83.9 µM) | 2 (≈ 2.62 µM) | 0.25 (≈ 0.328 µM) | 2 (≈ 2.62 µM) | 0.5 (≈ 0.655 µM) | 128 (≈ 168 µM) | – | > 128 | > 43.8 | 21.9 | 43.5 | 8 (≈ 10.5 µM) | 4 (≈ 5.24 µM) | 2 (≈ 2.62 µM) | – |
| CCC(CC)CN[C@@H]1[C@H](C)[C@@H](O)[C@](C)(O)[C@@H](CC)OC(=O)[C@H](C)[C@@H](O[C@H]2C[C@@](C)(OC)[C@@H](O)[C@H](C)O2)[C@H](C)[C@@H](O[C@@H]2O[C@H](C)C[C@H](N(C)C)[C@H]2O)[C@](C)(O)C[C@H]1C [Compound 12, 9-Deoxo-9-[(2-ethylbutyl)amino]erythromycin] | 8 (≈ 9.77 µM) | – | 16 (≈ 19.5 µM) | 16 (≈ 19.5 µM) | 2 (≈ 2.44 µM) | 0.015 (≈ 0.0183 µM) | 0.5 (≈ 0.61 µM) | 0.125 (≈ 0.153 µM) | 64 (≈ 78.1 µM) | 0.015 (≈ 0.0183 µM) | 32 (≈ 39.1 µM) | 22.3 | 9.4 | 16.6 | 2 (≈ 2.44 µM) | 0.5 (≈ 0.61 µM) | 0.25 (≈ 0.305 µM) | – |
| CCCN1CO[C@@H]2[C@@H](C)[C@@H]1[C@H](C)C[C@@](C)(O)[C@H](O[C@@H]1O[C@H](C)C[C@H](N(C)C)[C@H]1O)[C@@H](C)[C@H](O[C@H]1C[C@@](C)(OC)[C@@H](O)[C@H](C)O1)[C@@H](C)C(=O)O[C@H](CC)[C@@]2(C)O [Compound 59] | 1 (≈ 1.27 µM) | > 128 | 8 (≈ 10.1 µM) | 8 (≈ 10.1 µM) | 1 (≈ 1.27 µM) | < 0.008 | – | – | 32 (≈ 40.6 µM) | < 0.008 | 128 (≈ 162 µM) | 7.2 | 4.8 | 5 | 2 (≈ 2.53 µM) | 0.25 (≈ 0.317 µM) | 0.125 (≈ 0.158 µM) | MIC [7]: 0.125 µg/mL (≈ 0.158 µM); MIC ([8]; Streptococcus): 0.125 µg/mL (≈ 0.158 µM) |
| CC[C@H]1OC(=O)[C@H](C)[C@@H](O[C@H]2C[C@@](C)(OC)[C@@H](O)[C@H](C)O2)[C@H](C)[C@@H](O[C@@H]2O[C@H](C)C[C@H](N(C)C)[C@H]2O)[C@](C)(O)C[C@@H](C)[C@H](N2CCCCC2)[C@H](C)[C@@H](O)[C@]1(C)O [Compound 72, 9-Deoxo-9-(1-piperidinyl)erythromycin] | 128 (≈ 159 µM) | > 128 | > 128 | > 128 | 2 (≈ 2.49 µM) | 1 (≈ 1.25 µM) | 8 (≈ 9.96 µM) | 4 (≈ 4.98 µM) | > 128 | 1 (≈ 1.25 µM) | > 128 | > 44 | 23.6 | 20.6 | 64 (≈ 79.7 µM) | 16 (≈ 19.9 µM) | 16 (≈ 19.9 µM) | – |
| CC[C@H]1OC(=O)[C@H](C)[C@@H](O[C@H]2C[C@@](C)(OC)[C@@H](O)[C@H](C)O2)[C@H](C)[C@@H](O[C@@H]2O[C@H](C)C[C@H](N(C)C)[C@H]2O)[C@](C)(O)C[C@@H](C)[C@H](NCCC(C)CCCC(C)(C)OC)[C@H](C)[C@@H](O)[C@]1(C)O (stereo partly drawn) [Compound 24, 9-Deoxo-9-[(7-methoxy-3,7-dimethyloctyl)amino]erythromycin] | 2 (≈ 2.21 µM) | – | 64 (≈ 70.7 µM) | 64 (≈ 70.7 µM) | 1 (≈ 1.1 µM) | 0.015 (≈ 0.0166 µM) | 0.25 (≈ 0.276 µM) | 0.03 (≈ 0.0331 µM) | 128 (≈ 141 µM) | – | – | > 45.6 | 25 | 23.6 | 2 (≈ 2.21 µM) | 0.5 (≈ 0.552 µM) | 0.25 (≈ 0.276 µM) | – |
